Values of other authors, collected in patent US20200129637A1, “COMBINATION THERAPY WITH AN ANTI-AXL ANTIBODY-DRUG CONJUGATE” (ADC Therapeutics SA, priority 2017, published 2020).

Columns and labels:
[1] = tested on: AXL; details: incubation of tumor cells with MEKi
[2] = tested on: chronic lymphocytic leukaemia cells
[3] = tested on: AXL

| Molecule | AXL on the membrane of tumor cells [1] | ERCC1 transcription [2] | Efficiency of the homologous recombination repair machinery [3] | Expression of DNA repair genes [3] |
| --- | --- | --- | --- | --- |
| N#CC(=C(/N)Sc1ccccc1N)/C(C#N)=C(\N)Sc1ccccc1N [U0126] | strong accumulation of AXL | – | – | – |
| Fludarabine | – | suppress ERCC1 transcription | – | – |
| CN1CCN(Cc2ccc(Nc3ncc(Cl)c(Nc4ccccc4S(=O)(=O)N(C)C)n3)cc2)CC1 [TP0903] | – | – | diminish the efficiency | decrease expression of DNA repair genes |
| O=C(NOC[C@H](O)CO)c1ccc(F)c(F)c1Nc1ccc(I)cc1F [PD325901] | strong accumulation of AXL | – | – | – |
| Nc1nc(Nc2ccc3c(c2)CC[C@@H](N2CCCC2)CC3)nn1-c1cc2c(nn1)-c1ccccc1CCC2 [BGB324] | – | – | diminish the efficiency | decrease expression of DNA repair genes |
